Among the test systems are SNB-75; RPMI-8226; TK-10; EKVX; NCI-H460; HL-60; HT-29; 786-0; OVCAR-8; UO-31; CCRF-CEM; CAKI-1; UACC-62; ACHN; HCT-116; HOP-62.
What all share (test): NCI anticancer screen, dose series, 48 h

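48-hour exposure; five concentrations; linearly interpolated endpoints. GI50 = concentration required for 50% inhibition of growth.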 The source made the active and inactive calls. Rule as the data show it: active = GI50 up to about 1.1 µM and inactive = higher.

Regarding `CCCCCCCCCC(=O)N[C@H]1CCc2cc(OC)c(OC)c(OC)c2-c2ccc(SC)c(=O)cc21`, the GI50 in the assay on SNB-75 is 0.0395 µM (active); with RPMI-8226 it was 0.0422 µM (active); in the assay with TK-10 it was 0.759 µM (active); in the assay with EKVX, 0.0527 µM (active); with NCI-H460, 0.0347 µM (active); with HL-60, 0.034 µM (active). The GI50 with HT-29 is 0.0261 µM (active); with 786-0, 0.0393 µM (active); with OVCAR-8, 0.0338 µM (active); in the assay with UO-31, 0.231 µM (active); in the assay on CCRF-CEM, 0.0426 µM (active); with CAKI-1, 0.056 µM (active). Further, the GI50 in the assay on UACC-62 is 0.0353 µM (active); with ACHN, 0.0507 µM (active); in the assay with HCT-116, 0.0209 µM (active); in the assay with HOP-62 it was 0.0478 µM (active).
Consider `O=C(CN1CCN(c2ccccc2)CC1)N1CCc2c([nH]c3ccccc23)C1c1cccnc1` (centres undefined), for which the GI50 with SNB-75 was 6.92 µM (inactive); with RPMI-8226 it was > 100 µM (inactive); in the assay on TK-10 it was > 29.4 µM (inactive); in the assay on EKVX it was > 100 µM (inactive); in the assay with NCI-H460, 36.9 µM (inactive); in the assay with HL-60, 30.9 µM (inactive). The GI50 is > 53.5 µM (inactive) in the assay with HT-29; 15.3 µM (inactive) in the assay with 786-0; 24.4 µM (inactive) in the assay with OVCAR-8; > 58.3 µM (inactive) with UO-31; > 100 µM (inactive) in the assay with CCRF-CEM; 25.3 µM (inactive) in the assay with CAKI-1. Moreover, the GI50 with UACC-62 is 88.7 µM (inactive); in the assay with ACHN, 51.8 µM (inactive); with HCT-116 it was 14.5 µM (inactive); with HOP-62, 34.1 µM (inactive).
For `CCCCCCCCCCSS(=O)(=O)c1ccc(C)cc1`, the GI50 in the assay on SNB-75 was 2.3 µM (inactive); in the assay with RPMI-8226, 3.41 µM (inactive); in the assay on TK-10, 21 µM (inactive); with EKVX it was 12.4 µM (inactive); with NCI-H460, 8.13 µM (inactive); with HL-60, 2.43 µM (inactive). For the same compound, the GI50 with HT-29 is 9.08 µM (inactive); with 786-0 it was 6.1 µM (inactive); in the assay on OVCAR-8, 14.1 µM (inactive); in the assay on UO-31 it was 15 µM (inactive); with CCRF-CEM, 2.24 µM (inactive); in the assay on CAKI-1, 15.9 µM (inactive). In addition, the GI50 with UACC-62 is 6.82 µM (inactive); in the assay on ACHN, 16.9 µM (inactive); with HCT-116 it was 12.5 µM (inactive); in the assay with HOP-62, 19.9 µM (inactive).
For `CC(=O)N1CCC2(C=Nc3ccccc32)CC1`, the GI50 in the assay on SNB-75, in the assay on RPMI-8226, in the assay with TK-10, in the assay with EKVX, with NCI-H460 and with HL-60 was > 100 µM (inactive) in each case. Also, the GI50 with HT-29, in the assay with 786-0, in the assay with OVCAR-8, in the assay on CCRF-CEM, in the assay on CAKI-1 and with UACC-62 was > 100 µM (inactive) in each case. The GI50 in the assay on ACHN, in the assay with HCT-116 and with HOP-62 was > 100 µM (inactive) each time.
With `OC1[C@H]([C@H]2CCCC[C@@H]2O)CCC[C@@H]1[C@@H]1CCCC[C@H]1O` (some centres undefined), the GI50 in the assay on SNB-75, in the assay on RPMI-8226, with TK-10, in the assay with EKVX, in the assay on NCI-H460 and in the assay with HL-60 was > 100 µM (inactive) in each case. Besides, the GI50 in the assay on HT-29, in the assay with 786-0, in the assay on OVCAR-8, in the assay with UO-31, with CCRF-CEM and in the assay with CAKI-1 was > 100 µM (inactive) each time. Also, the GI50 in the assay on UACC-62, with ACHN, in the assay with HCT-116 and in the assay with HOP-62 was > 100 µM (inactive) each time.

For the origin of these results see ChEMBL document CHEMBL1201862, “PubChem BioAssay data set” (2004).
